Data as given in ChEMBL document CHEMBL2429773, “Synthesis and antiseizure evaluation of isoindoline-1,3-dione derivatives in mice” (Med Chem Res, 2013).

How the values were obtained:
Mus musculus [1] = assay: Anticonvulsant activity against maximal electroshock-induced seizures in albino mouse assessed as seizure at 100 mg/kg, ip after 0.5 hr; format: functional; details: route intraperitoneal
Mus musculus [2] = assay: Anticonvulsant activity against subcutaneous pentylenetetrazole-induced seizures in albino mouse assessed as onset of seizure time at 300 mg/kg, ip after 0.5 hr; format: functional; details: route intraperitoneal
Mus musculus [3] = assay: Anticonvulsant activity in albino mouse assessed as protection against subcutaneous pentylenetetrazole-induced death measured as mortality at 100 mg/kg, ip after 0.5 hr; format: functional; details: sc, route intraperitoneal
Mus musculus [4] = assay: Anticonvulsant activity against maximal electroshock-induced seizures in albino mouse assessed as seizure at 30 mg/kg, ip after 0.5 hr; format: functional; details: route intraperitoneal
Mus musculus [5] = assay: Anticonvulsant activity against subcutaneous pentylenetetrazole-induced seizures in albino mouse assessed as duration of seizure time at 30 mg/kg, ip after 0.5 hr; format: functional; details: route intraperitoneal
Mus musculus [6] = assay: Anticonvulsant activity in albino mouse assessed as protection against subcutaneous pentylenetetrazole-induced death measured as mortality at 300 mg/kg, ip after 0.5 hr; format: functional; details: sc, route intraperitoneal
Mus musculus [7] = assay: Anticonvulsant activity against subcutaneous pentylenetetrazole-induced seizures in albino mouse assessed as onset of seizure time at 30 mg/kg, ip after 0.5 hr; format: functional; details: route intraperitoneal
Mus musculus [8] = assay: Anticonvulsant activity against subcutaneous pentylenetetrazole-induced seizures in albino mouse assessed as seizure at 100 mg/kg, ip after 0.5 hr; format: functional
Mus musculus [9] = assay: Anticonvulsant activity in ip dosed albino mouse assessed as protection against maximal electroshock-induced seizures after 0.5 hr; format: functional
Mus musculus [10] = assay: Anticonvulsant activity against subcutaneous pentylenetetrazole-induced seizures in albino mouse assessed as onset of seizure time at 100 mg/kg, ip after 0.5 hr; format: functional; details: route intraperitoneal
Mus musculus [11] = assay: Anticonvulsant activity against subcutaneous pentylenetetrazole-induced seizures in albino mouse assessed as duration of seizure time at 100 mg/kg, ip after 0.5 hr; format: functional; details: route intraperitoneal
Mus musculus [12] = assay: Anticonvulsant activity against maximal electroshock-induced seizure in albino mouse assessed as seizures at 300 mg/kg, ip after 0.5 hr; format: functional; details: route intraperitoneal
Mus musculus [13] = assay: Anticonvulsant activity against subcutaneous pentylenetetrazole-induced seizures in albino mouse assessed as duration of seizure time at 300 mg/kg, ip after 0.5 hr; format: functional; details: route intraperitoneal
Mus musculus [14] = assay: Anticonvulsant activity in albino mouse assessed as protection against subcutaneous pentylenetetrazole-induced death measured as mortality at 30 mg/kg, ip after 0.5 hr; format: functional; details: sc
Mus musculus [15] = assay: Protective index, ratio of TD50 for neurotoxicity in ip dosed albino mouse to ED50 for anticonvulsant activity in ip dosed albino mouse; format: functional
[16] = Neurotoxicity in ip dosed albino mouse measured after 30 mins by rotarod method; format: toxicity, organism-based; details: in vivo

SMILES | Activity (Mus musculus [1]) [%] | Time (Mus musculus [2]) [min] | mortality at 100 mg/kg (Mus musculus [3]) [%] | Activity (Mus musculus [4]) [%] | Time (Mus musculus [5]) [min] | mortality at 300 mg/kg (Mus musculus [6]) [%] | Time (Mus musculus [7]) [min] | Activity (Mus musculus [8]; route intraperitoneal) [%] | ED50 (Mus musculus [9]) [mg/kg] | Time (Mus musculus [10]) [min] | Time (Mus musculus [11]) [min] | Activity (Mus musculus [12]) [%] | Time (Mus musculus [13]) [min] | mortality at 30 mg/kg (Mus musculus [14]; route intraperitoneal) [%] | Ratio TD50/ED50 (Mus musculus [15]) | TD50 at 0.5 h [16] [mg/kg] | Activity (Mus musculus [8]; ROUTE) [%] | mortality at 30 mg/kg (Mus musculus [14]) [%]
COc1cccc(N2C(=O)c3ccccc3C2=O)c1 | 100 | 10.25 | 75 | 100 | 7.25 | 25 | 3 | 100 | > 300 | 7.25 | 18.75 | 75 | 22.25 | 100 |  |  |  | 
O=C1c2ccccc2C(=O)N1c1ccc(Cl)cc1 | 25 | 8.25 | 75 | 75 | 10.5 | 75 | 3 | 100 | 55 | 3.25 | 12.75 | 25 | 19.25 | 100 | >5.54 | > 300 |  | 
O=C1c2ccccc2C(=O)N1c1cccc(Cl)c1 | 100 | 4.75 | 75 | 100 | 11.25 | 25 | 3.5 | 100 | 190 | 3.75 | 7 | 25 | 9 | 100 | 1.57 | 300 |  | 
COc1ccc(N2C(=O)c3ccccc3C2=O)cc1 | 25 | 13.5 | 100 | 25 | 11.75 | 0 | 3 | 100 | 15.1 | 5.25 | 22.25 | 0 | 23.75 | 100 | 5.91 | 89.3 |  | 
O=C1c2ccccc2C(=O)N1c1ccccc1Cl | 75 | 9.5 | 75 | 100 | 8.25 | 100 | 1.5 | 100 | 168 | 6.5 | 14.25 | 25 | 24.5 | 100 |  |  |  | 
O=C1c2ccccc2C(=O)N1c1ccccc1F | 75 | 4.75 | 100 | 100 | 5.5 | 75 | 2 | 100 | > 300 | 5 | 9 | 0 | 12 | 100 | <0.77 | 233 |  | 
O=C1c2ccccc2C(=O)N1c1cccc(F)c1 | 0 | 4.75 | 100 | 100 | 10.5 | 75 | 5 | 100 | 39.7 | 4 | 11 | 25 | 14 | 100 | 0.79 | 31.7 |  | 
O=C1c2ccccc2C(=O)N1c1ccc(F)cc1 | 100 | 15.25 | 25 | 100 | 13.25 | 0 | 3 | 100 | > 300 | 8.5 | 23.75 | 75 | 23.5 | 25 | <0.6 | 182 |  | 
O=C1c2ccccc2C(=O)N1c1cccc([N+](=O)[O-])c1 | 75 | 10.5 | 100 | 100 | 6 | 75 | 3.5 | 100 | 174 | 4.5 | 16.5 | 25 | 18.25 | 100 | 0.42 | 74.2 |  | 
O=C1c2ccccc2C(=O)N1c1ccc([N+](=O)[O-])cc1 | 25 | 6.25 | 75 | 100 | 5.75 | 75 | 3.5 | 100 | 62.3 | 4 | 11.75 | 25 | 15.5 | 75 | 2.81 | 176 |  | 
COc1ccccc1N1C(=O)c2ccccc2C1=O | 100 | 7.25 | 100 | 100 | 9.75 | 75 | 2.75 | 100 | 195 | 5.75 | 9.75 | 25 | 13.5 | 100 | 1.14 | 222 |  | 
O=C1c2ccccc2C(=O)N1c1ccccc1[N+](=O)[O-] | 25 | 8.75 | 0 | 75 | 7 | 75 | 2 | 100 | 53.5 | 7.5 | 22.5 | 0 | 18 | 100 | >5.6 | > 300 |  | 
CN1C(=O)CN=C(c2ccccc2)c2cc(Cl)ccc21 [DIAZEPAM] |  |  |  |  |  |  |  |  | 1.8 |  |  |  |  |  |  |  | 0 | 0
